The text below walks through data of patent publication US10538497B2, “Compounds as indoleamine 2,3-dioxygenase inhibitors” (Merck Sharp & Dohme Corp., priority 2015, dated 2020).

The target of test [1] is T1, IDO1 (Homo sapiens (Human), UniProt P14902). Kind of test: IDO1 Cellular Assay in Frozen HEK293 Cells Transiently Transfected with Human IDO1. The format is cell-based. To be noted: read-out: IDO1 HEK293 Cell Assay, IC50.
Test [2] has as its target T1, IDO1. Briefly: IDO1 Cellular Assay in Hela Cells Stimulated with IFNγ. Format: cell-based. To be noted: Hela cells stimulated with IFNγ 100 ng/mL; read-out: IDO1 HELA Cell Assay, IC50.
Test [3] concerns the target T1, IDO1. Briefly: IDO1 Enzyme Assay. To be noted: HIS-tagged recombinant IDO1, 40 nM.
Setting [4] is: read-out: IDO1 Enzyme Assay, IC50.
[5] abbreviates: HEK293 cells transiently transfected with human IDO1.

T1 sequence (P14902 whole entry): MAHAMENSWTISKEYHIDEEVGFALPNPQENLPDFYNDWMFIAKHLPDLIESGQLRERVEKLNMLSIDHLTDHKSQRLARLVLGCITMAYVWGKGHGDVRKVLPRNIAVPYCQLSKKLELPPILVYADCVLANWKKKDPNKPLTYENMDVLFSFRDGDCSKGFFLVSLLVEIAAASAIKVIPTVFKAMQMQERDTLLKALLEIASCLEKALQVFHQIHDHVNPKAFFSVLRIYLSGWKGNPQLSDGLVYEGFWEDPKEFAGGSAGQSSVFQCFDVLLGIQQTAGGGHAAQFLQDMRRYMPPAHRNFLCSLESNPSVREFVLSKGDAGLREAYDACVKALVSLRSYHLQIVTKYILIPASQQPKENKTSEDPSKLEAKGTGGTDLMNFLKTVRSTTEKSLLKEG

Take `CNP(=O)(CCSc1nonc1/C(=N/O)Nc1ccc(F)c(Br)c1)NC` [Example 103, 4-({2-[bis(methylamino)phosphoryl]ethyl}sulfanyl)-N-(3-bromo-4-fluorophenyl)-N′-hydroxy-1,2,5-oxadiazole-3-carboximidamide]: the concentration for half-maximal inhibition (IC50) – broadly, the concentration at which inhibition is half-maximal – at IDO1 [1] is 84.5 nM; on IDO1 [2], 32.3 nM; on IDO1 [3] (setting [4]), 48.5 nM.
Turning to `CNC(=O)N1CCC(Sc2nonc2/C(=N/O)Nc2ccc(F)c(Br)c2)CC1` [Example 104, 4-({4-[N-(3-bromo-4-fluorophenyl)-N′-hydroxycarbamimidoyl]-1,2,5-oxadiazol-3-yl}sulfanyl)-N-methylpiperidine-1-carboxamide], the IC50 came out at 269 nM on IDO1 [1] (setting [5]), 353 nM at IDO1 [2] and 169 nM on IDO1 [3] (setting [4]).
Regarding `COCCNC(=O)CCSc1nonc1/C(=N/O)Nc1ccc(F)c(Br)c1` [Example 106, 3-({4-[N-(3-bromo-4-fluorophenyl)-N′-hydroxycarbamimidoyl]-1,2,5-oxadiazol-3-yl}sulfanyl)-N-(2-methoxyethyl)propanamide], the results for the IC50 on IDO1 [1] (setting [5]), on IDO1 [2] and on IDO1 [3] (setting [4]) were 78.7 nM, 558 nM and 30 nM, respectively.
The like results for `O=C(CCSc1nonc1/C(=N/O)Nc1ccc(F)c(Br)c1)NCCO` [Example 107, 3-({4-[N-(3-bromo-4-fluorophenyl)-N′-hydroxycarbamimidoyl]-1,2,5-oxadiazol-3-yl}sulfanyl)-N-(2-hydroxyethyl)propanamide] were, in that order, 43.1 nM, 48.3 nM and 30.1 nM.
As to `CCNC(=O)CSc1nonc1C(=NO)Nc1ccc(F)c(Br)c1` [Example 110, 2-({4-[N-(3-bromo-4-fluorophenyl)-N′-hydroxycarbamimidoyl]-1,2,5-oxadiazol-3-yl}sulfanyl)-N-ethylacetamide], the half-maximal inhibitory concentration (IC50) on IDO1 [1] (setting [5]) stood at 25.6 nM; at IDO1 [2] it was 54.3 nM; on IDO1 [3] (IDO1 Enzyme Assay, IC50, nM), 48.5 nM.
On the same counts, the results for `CN(C)C(=O)CSc1nonc1C(=NO)Nc1ccc(F)c(Br)c1` [Example 111, 2-({4-[N-(3-bromo-4-fluorophenyl)-N′-hydroxycarbamimidoyl]-1,2,5-oxadiazol-3-yl}sulfanyl)-N,N-dimethylacetamide] are 446 nM, 685 nM and 59.6 nM.
The like results for `O=C(CSc1nonc1C(=NO)Nc1ccc(F)c(Br)c1)NCCO` [Example 112, 2-({4-[N-(3-bromo-4-fluorophenyl)-N′-hydroxycarbamimidoyl]-1,2,5-oxadiazol-3-yl}sulfanyl)-N-(2-hydroxyethyl)acetamide] were, in that order, 40 nM, 40.8 nM and 54.2 nM.
The like results for `O=C(CSc1nonc1/C(=N/O)Nc1ccc(F)c(Br)c1)NC1CC1` [Example 113, 2-({4-[N-(3-bromo-4-fluorophenyl)-N′-hydroxycarbamimidoyl]-1,2,5-oxadiazol-3-yl}sulfanyl)-N-cyclopropylacetamide] were, in that order, 35.4 nM, 76.5 nM and 47.3 nM.
With `O=C(CSc1nonc1C(=NO)Nc1ccc(F)c(Br)c1)NC1CCC1` [Example 114, 2-({4-[N-(3-bromo-4-fluorophenyl)-N′-hydroxycarbamimidoyl]-1,2,5-oxadiazol-3-yl}sulfanyl)-N-cyclobutylacetamide], the IC50 on IDO1 [1] (setting [5]) turned out to be 97 nM; on IDO1 [2], 148 nM; at IDO1 [3] (IDO1 Enzyme Assay, IC50, nM), 36.9 nM.
For `CC(=O)CSc1nonc1/C(=N/O)Nc1ccc(F)c(Br)c1` [Example 115, N-(3-bromo-4-fluorophenyl)-N′-hydroxy-4-[(2-oxopropyl)sulfanyl]-1,2,5-oxadiazole-3-carboximidamide], the IC50 on IDO1 [1] (setting [5]) came out at 105 nM; on IDO1 [2], 168 nM; on IDO1 [3] (setting [4]), 51 nM.
For the compound `CN1C(=O)NC[C@H]1CSc1nonc1/C(=N/O)Nc1ccc(F)c(Br)c1` [Example 121, N-(3-bromo-4-fluorophenyl)-N′-hydroxy-4-({[(4S)-3-methyl-2-oxoimidazolidin-4-yl]methyl}sulfanyl)-1,2,5-oxadiazole-3-carboximidamide], the IC50 on IDO1 [1] (setting [5]) came out at 45.8 nM; on IDO1 [2] it was 39.7 nM; on IDO1 [3] (setting [4]) it was 47.7 nM.
The like results for `CN1C[C@@H](CSc2nonc2/C(=N/O)Nc2ccc(F)c(Br)c2)NC1=O` [Example 122, N-(3-bromo-4-fluorophenyl)-N′-hydroxy-4-({[(4S)-1-methyl-2-oxoimidazolidin-4-yl]methyl}sulfanyl)-1,2,5-oxadiazole-3-carboximidamide] were, in that order, 23.3 nM, 26.7 nM and 37.7 nM.
Turning to `CN1C[C@H](CSc2nonc2/C(=N/O)Nc2ccc(F)c(Br)c2)NC1=O` [Example 123, N-(3-bromo-4-fluorophenyl)-N′-hydroxy-4-({[(4R)-1-methyl-2-oxoimidazolidin-4-yl]methyl}sulfanyl)-1,2,5-oxadiazole-3-carboximidamide], the IC50 on IDO1 [1] (setting [5]) was 37.8 nM; at IDO1 [2] it was 75.7 nM; at IDO1 [3] (setting [4]) it was 44.2 nM.
For `O=C1NCC(CSc2nonc2/C(=N/O)Nc2ccc(F)c(Br)c2)O1` (stereo not drawn) [Example 124, N-(3-bromo-4-fluorophenyl)-N′-hydroxy-4-{[(2-oxo-1,3-oxazolidin-5-yl)methyl]sulfanyl}-1,2,5-oxadiazole-3-carboximidamide], the IC50 at IDO1 [1] (setting [5]) was determined as 65.6 nM; on IDO1 [2], 56.2 nM; at IDO1 [3] (setting [4]), 34.5 nM.
The like results for `O/N=C(\Nc1ccc(F)c(Br)c1)c1nonc1SCCN1CCOCC1` [Example 126, N-(3-bromo-4-fluorophenyl)-N′-hydroxy-4-[(2-morpholin-4-ylethyl)sulfanyl]-1,2,5-oxadiazole-3-carboximidamide] were, in that order, 52.9 nM, 92.6 nM and 57.5 nM.
On the same counts, the results for `CCCCNC(=O)NCCSc1nonc1C(=NO)Nc1ccc(F)c(Br)c1` [Example 127, N-(3-bromo-4-fluorophenyl)-4-({2-[(bulylcarbamoyl)amino]ethyl}sulfanyl)-N′-hydroxy-1,2,5-oxadiazole-3-carboximidamide] are 115 nM, 219 nM and 33.5 nM.
On the same counts, the results for `CCOC(=O)NC(=O)NCCSc1nonc1C(=NO)Nc1ccc(F)c(Br)c1` [Example 128, ethyl {[2-({4-[N-(3-bromo-4-fluorophenyl)-N′-hydroxycarbamimidoyl]-1,2,5-oxadiazol-3-yl}sulfanyl)ethyl]carbamoyl} carbamate] are 149 nM, 169 nM and 110 nM.
Consider `O=C(NCCSc1nonc1C(=NO)Nc1ccc(F)c(Br)c1)NC1CCCC1` [Example 129, N-(3-bromo-4-fluorophenyI)-4-({2-[(cyclopentylcarbamoyl)amino]ethyl}sulfanyl)-N′-hydroxy-1,2,5-oxadiazole-3-carboximidamide], for which the IC50 on IDO1 [1] (setting [5]) was 258 nM; at IDO1 [2], 702 nM; at IDO1 [3] (setting [4]), 35.3 nM.
On the same counts, the results for `O=C(NCCSc1nonc1C(=NO)Nc1ccc(F)c(Br)c1)NCC1CCOCC1` [Example 130, N-(3-bromo-4-fluorophenyl)-N′-hydroxy-4-[(2-{[(tetrahydro-2H-pyran-4-ylmethyl)carbamoyl]amino}ethyl)sulfanyl]-1,2,5-oxadiaxole-3-carboximidamide] are 206 nM, 371 nM and 37 nM.
With `O=C(NCCSc1nonc1C(=NO)Nc1ccc(F)c(Br)c1)NCc1ccco1` [Example 131, N-(3-bromo-4-fluorophenyl)-4-[(2-{[(furan-2-ylmethyl)carbamoyl]amino}ethyl)sulfanyl]-N′-hydroxy-1,2,5-oxadiazole-3-carboximidamide], the IC50 at IDO1 [1] (setting [5]) came out at 66.7 nM; on IDO1 [2], 167 nM; on IDO1 [3] (IDO1 Enzyme Assay, IC50, nM), 34.1 nM.
On the same counts, the results for `COCCNC(=O)NCCSc1nonc1C(=NO)Nc1ccc(F)c(Br)c1` [Example 132, N-(3-bromo-4-fluorophenyl)-N′-hydroxy-4-[(2-{[(2-methoxyethyl)carbamoyl]amino}ethyl)sulfanyl]-1,2,5-oxadiazole-3-carboximidamide] are 33.1 nM, 31.7 nM and 32.1 nM.
`Cn1c(CSc2nonc2/C(=N/O)Nc2ccc(F)c(Cl)c2)n[nH]c1=O` [Example 133, N-(3-chloro-4-fluorophenyl)-N′-hydroxy-4-{[(4-methyl-5-oxo-4,5-dihydro-1H-1,2,4-triazol-3-yl)methyl]sulfanyl}-1,2,5-oxadiazole-3-carboximidamide]: the concentration for half-maximal inhibition (IC50) at IDO1 [1] (setting [5]) was found to be 226 nM; at IDO1 [2], 235 nM; at IDO1 [3] (setting [4]), 71.5 nM.
Consider `CC(O)CNC(=O)CSc1nonc1C(=NO)Nc1ccc(F)c(Br)c1` (stereo not drawn) [Example 138, 2-({4-[N-(3-bromo-4-fluorophenyl)-N′-hydroxycarbamimidoyl]-1,2,5-oxadiazol-3-yl}sulfanyl)-N-(2-hydroxypropyl)acetamide], for which the concentration for half-maximal inhibition (IC50) at IDO1 [1] (setting [5]) was determined as 60 nM; at IDO1 [2] it was 54.7 nM; on IDO1 [3] (IDO1 Enzyme Assay, IC50, nM) it was 38.7 nM.
With `O=c1[nH]nc(CCSc2nonc2/C(=N/O)Nc2ccc(F)c(Br)c2)o1` [Example 141, N-(3-bromo-4-fluorophenyl)-N′-hydroxy-4-{[2-(5-oxo-4,5-dihydro-1,3,4-oxadiazol-2-yl)ethyl]sulfanyl}-1,2,5-oxadiazole-3-carboximidamide], the half-maximal inhibitory concentration (IC50) at IDO1 [1] (setting [5]) worked out at 131 nM; at IDO1 [2], 112 nM; on IDO1 [3] (setting [4]) it was 72.2 nM.
On the same counts, the results for `CC(=O)NCCSc1nonc1/C(=N/O)Nc1ccc(F)c(C(F)F)c1` [Example 142, N-{2-[(4-{N-[3-(difluoromethyl)-4-fluorophenyl]-N′-hydroxycarbamimidoyl}-1,2,5-oxadiazol-3-yl)sulfanyl]ethyl}acetamide] are 46.9 nM, 57.2 nM and 54 nM.
